Data as given in US9937192B2, “Combination therapy to treat mycobacterium diseases” (priority 2012, dated 2018).
Counter-ions that a name gives are not always drawn. Like-named read-outs stand apart in the source and are kept apart here.

Columns and labels:
[1] = tested on: Mycobacterium tuberculosis; assay: Mycobacterium tuberculosis Serum Shift MIC Assay (Protocol 5); format: cell-based; settings: ATCC 35801 / ERDMAN
From the text: Protocol 5. Protocol for Mycobacterium tuberculosis Serum Shift MIC Assay
Media Prep: • 1. […] It was important that all media and supplements were sterilized prior to MICs. • 2. Prepared all media below and inoculated as described in next section. Tested all compounds against Mtb using each media. • a. […] 7H9+0.2% glycerol+2 g/L dextrose+0.85 g/L NaCl+0.003 g/L catalase (0% FBS). • c. 2×7H9+0.2% glycerol+2 g/L dextrose+0.85 g/L NaCl+0.003 g/L catalase combined with equal volume Fetal Bovine Serum (50% FBS).
Inoculum Prep: • 1. Using BBL Prompt, picked 5-10 well-separated colonies and inoculated 1 ml sterile saline that came in the kit. Typically plates were two to three weeks of age when used for this assay due to the slow growth of this organism in culture. • 2. Vortexed well, then sonicated in water bath for 30 sec providing a suspension of ˜10^8 cells/ml. Actual density could be confirmed by plating out dilutions of this suspension. • 3. Prepared inoculum in each of the three media formulations by diluting the BBL Prompt suspension 1/200 (for example: transferred 0.2 ml of cells to 40 ml of medium) to obtain a starting cell density of […]. • 4. Used 100 μl cells (˜5×10^4 cells) to inoculate each microtiter well containing 1 μl of drug in DMSO (see below).
Drug Dilutions, Inoculation, MIC Determination: • 1. Control drug stocks Isoniazid and Novobiocin were prepared at 10 mM in 100% DMSO while Ciprofloxacin and Rifampin were prepared at 1 mM in 50% DMSO and 100% DMSO, respectively. Prepared dilutions—dispensed 100 μL of the stock solution into the first column of a 96-well plate. Prepared 11-step, 2-fold serial dilutions across the row for each compound by transferring 50 μl from column 1 into 50 μl of DMSO in column 2. Continued to transfer 50 μL from column 2 through column 11 while mixing and changing tips at each column. Left column 12 with DMSO only as a control. • 2. Transferred 1 μl of each dilution into an empty microtiter well prior to the addition of 100 μl of cells. The starting concentration of Isoniazid and Novobiocin was 100 μM after the dilution into medium+cells; the starting concentration of Ciprofloxacin and Rifampin was 10 μM after the dilution into medium+cells. Compound concentrations decreased in 2× steps moving across the rows of the microtiter plate. […] Measured background fluorescence at Excitation 492 nm, Emission 595 nm and returned the plate to the incubator for another 24 hours.
After 24 hours the fluorescence of each well was measured at Excitation 492 nm, Emission 595 nm.
Percent inhibition by a given compound was calculated as follows: Percent inhibition=100−([well fluorescence-average background fluorescence]/[DMSO control−average background fluorescence]×100). […]

[2] = tested on: nonreplicating M. tuberculosis; assay: Low-Oxygen-Recovery Assay (LORA) MIC; format: cell-based; settings: Mycobacterium tuberculosis, read-out: LORA MIC
From the text: MIC Determination in the Low-Oxygen-Recovery Assay (LORA) for Nonreplicating M. tuberculosis
Screening for new antimicrobial agents is routinely conducted only against actively replicating bacteria. However, it is now widely accepted that a physiological state of non-replicating persistence (NRP) is responsible for antimicrobial tolerance in many bacterial infections. In tuberculosis, the key to shortening the 6-month regimen lies in targeting this NRP subpopulation. […] Cho S H, Want S, Wan B, Hwang C H, Pauli G F, Franzblau S G; “Low-Oxygen-Recovery Assay for High-Throughput Screening of Compounds against Nonreplicating Mycobacterium tuberculosis” Antimicrob Agents Chemother. 2007 April; 51(4): 1380-1385 doi: 10.1128/AAC.00055-06.

CCNC(=O)Nc1nc2cc(-c3cnc(C(C)(C)O)nc3)c(F)c([C@H]3CCCO3)c2[nH]1 [Compound 23A, methanesulfonic acid salt of 1-ethyl-3-[6-fluoro-5-[2-(1-hydroxy-1-methyl-ethyl)pyrimidin-5-yl]-7-[(2R)-tetrahydrofuran-2-yl]-1H-benzimidazol-2-yl]urea]
MIC ([1]; M. tuberculosis Erdman ATCC 35801, read-out: MIC): 0.03 µg/mL
MIC ([1]; M. tuberculosis Erdman ATCC 35801 with Mouse Serum): 0.5 µg/mL
MIC [2]: 0.25 µg/mL
